Test results reported in PMC6013220, “Activation of TREK currents by riluzole in three subgroups of cultured mouse nodose ganglion neurons” (PLoS ONE, 2018).

Legend:
human TRESK (KCNK18) = target: T1, human TRESK (KCNK18) (Homo sapiens, UniProt Q7Z418); experiment: whole-cell patch clamp, current at -40 mV; type: cell-based
T1 construct: full-length cDNA in pcDNA3.1, co-transfected with separate GFP cDNA in tsA201 cells
T1 sequence (Q7Z418 1-384): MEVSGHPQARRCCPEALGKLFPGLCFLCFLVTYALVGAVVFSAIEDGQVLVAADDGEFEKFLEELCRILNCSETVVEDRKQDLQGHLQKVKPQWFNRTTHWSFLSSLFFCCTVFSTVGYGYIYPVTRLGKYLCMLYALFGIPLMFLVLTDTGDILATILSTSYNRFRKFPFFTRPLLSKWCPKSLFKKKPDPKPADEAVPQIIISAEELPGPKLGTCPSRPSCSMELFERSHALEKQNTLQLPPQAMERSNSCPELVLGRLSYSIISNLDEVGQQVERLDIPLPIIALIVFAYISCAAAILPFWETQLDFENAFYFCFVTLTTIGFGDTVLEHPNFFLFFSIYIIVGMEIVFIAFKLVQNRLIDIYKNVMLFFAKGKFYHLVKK

[1] = test system: T2, TREK subfamily channels (TREK-1, TREK-2 and TRAAK); experiment: whole-cell perforated patch clamp, outward current in native neurons; type: cell-based, Mus musculus; settings: activator, unreliable (extrapolated), holding -30 mV, blocker cocktail, room temperature
T2 construct: gene Kcnk2; native channels in cultured nodose ganglion neurons; the authors argue mainly TREK-1, subtype not proven

`Nc1nc2ccc(OC(F)(F)F)cc2s1` [riluzole] was tested, and the inhibition at 100 µM (human TRESK (KCNK18)) was 64% and the EC50 [1] was 392.2 ± 182.8 µM.
